What was measured:
LAN-1 cells [1] = experiment: Polyamine pool analysis in inhibitor-treated LAN-1 cells; type: cell-based, human; conditions: DFMO = 5 mM, SAM486A = 10 μM, Spd = 10 μM
Procedure: (§1) Combined inhibition of both enzymes decreased polyamine pools to various degrees, and exogenous supplementation of Spd (10 μM) to cell cultures led to a substantial increase in Spd. […] In untreated control cells, the levels of Put and Spd decreased during exponential cell growth and proliferation (day 0 to day 3), which is also consistent with a decrease in ODC and AdoMetDC enzyme activities (FIGS. 3d and 3e). Spm levels decreased in untreated LAN-1 cells and remained the same in NMB-7 cells (Table 1).
(§2) Human NB cell lines were provided by Dr. Robert Seeger (LAN-1; University of California, Los Angeles, Calif.), Dr. Nai-Kong Cheung (NMB-7; Memorial Sloan-Kettering Cancer Center, NY), and the American Type Culture Collection (SK-N-SH; ATCC, Manassas, Va.). Cells were maintained in RPMI 1640 (Biosource, Rockeville, Md.) containing 10% heat-inactivated fetal bovine serum (FBS) (Invitrogen, Carlsbad, Calif.), penicillin (100 IU/ml) and streptomycin (100 μg/ml). If cells were treated with exogenous Spd, 1 mM of aminoguanidine was included as an inhibitor of serum polyamine oxidation. […] For growth and proliferation inhibition, polyamine pool, and cell cycle studies, 10 μM Spd was added together with inhibitors, and cells were assayed on days 2 and/or 3.
(§3) Intracellular polyamines were extracted from cell pellets by a method known in the art. In brief, cells were washed and centrifuged. After sonication and centrifugation, 250 μl of supernatant, 100 μl of saturated sodium carbonate, and 300 μl of 25 mg/ml dansyl chloride (5-dimethylamino-naphthalene-1-sulfonyl chloride) (Fluka, Switzerland) were mixed and analyzed via reverse phase HPLC using a C18 reverse-phase analytical column (Waters, Milford, Mass.). The effluent from the column was monitored at 510 nm (excitation at 330 nm). Polyamine levels were determined using appropriate standards. The samples were normalized in 0.2 N sodium hydroxide and the amount of total protein per sample was measured using the Bradford assay (70). Polyamine levels are expressed as nmol per mg of total cellular protein.

NMB-7 cells [2] = experiment: Polyamine pool analysis in inhibitor-treated NMB-7 cells; type: cell-based, human; conditions: DFMO = 5 mM, SAM486A = 10 μM, Spd = 10 μM
Procedure: as §1, §2, §3

ODC = target: T1, ODC (Homo sapiens, UniProt P11926); experiment: ODC enzyme activity in lysates of inhibitor-treated NB cells; type: cell-based; conditions: DFMO = 5 mM, SAM486A = 10 μM, mean ± SD
T1 construct: enzyme activities were measured in cell lysates; endogenous in cells
T1 sequence (P11926 1-461): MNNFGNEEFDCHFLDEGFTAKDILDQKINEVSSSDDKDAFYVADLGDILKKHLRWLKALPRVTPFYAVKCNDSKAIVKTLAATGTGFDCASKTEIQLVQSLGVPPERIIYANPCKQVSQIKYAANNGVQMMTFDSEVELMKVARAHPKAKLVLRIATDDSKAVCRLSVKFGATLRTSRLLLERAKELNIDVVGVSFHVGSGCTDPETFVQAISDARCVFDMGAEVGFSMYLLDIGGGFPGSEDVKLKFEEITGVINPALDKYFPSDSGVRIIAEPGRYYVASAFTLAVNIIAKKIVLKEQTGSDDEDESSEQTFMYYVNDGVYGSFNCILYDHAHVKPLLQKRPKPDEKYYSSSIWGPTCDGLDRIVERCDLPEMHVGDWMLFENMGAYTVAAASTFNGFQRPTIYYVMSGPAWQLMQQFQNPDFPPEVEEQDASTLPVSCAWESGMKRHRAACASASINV
Procedure: as §2
ODC and AdoMetDC enzyme activities were determined using a standard assay known in the art. In brief, NB cells were washed twice with ice-cold PBS and harvested in 50 mM sodium phosphate buffer (pH 7.2), 0.1 mM EDTA, 2.5 mM DTT, supplemented with 1× protease inhibitor cocktail (Roche Molecular Biochemicals, Indianapolis, Ind.). For the measurement of AdoMetDC activity, cells were harvested in the above buffer supplemented with 2.5 mM Put. Cells were lysed by three freeze/thaw cycles and cell lysates were prepared by centrifugation for 20 minutes at 14,000 rpm and 4° C. ODC activity was measured in a reaction mixture that contained 20 μM L-[1-^14C]ornithine (47.70 mCi/mmol; NEN Life Science Products, Boston, Mass.). AdoMetDC activity was assayed in a reaction mixture that contained 8.2 μM S-adenosyl-L-[carboxy-^14C]methionine (58.0-61.0 mCi/mmol; Amersham Biosciences, Piscataway, N.J.) and 140.1 μM cold S-adenosylmethionine. […] Untreated or SAM486A-treated LAN-1 extracts were assayed for AdoMetDC activity after multiple rounds of sequential dilution with harvest buffer followed by concentration of the extract (Centricon YM-10, Millipore Corporation, Bedford, Mass.) to remove the inhibitor.

LAN-1 cells [3] = experiment: Cell cycle phase distribution (propidium iodide), LAN-1; type: cell-based, human; conditions: DFMO = 5 mM, SAM486A = 10 μM, Spd = 10 μM, mean ± SD
Text: (§4) This profile, which is typical for cell cycle arrest at G1, was enhanced by the combination of both inhibitors, with the majority of cells in G1 (˜71-73%), a reduced number of cells in S phase (˜20-28%), and a small portion in G2/M (˜2-7%).
as §2

NMB-7 cells [4] = experiment: Cell cycle phase distribution (propidium iodide), NMB-7; type: cell-based, human; conditions: DFMO = 5 mM, SAM486A = 10 μM, Spd = 10 μM, mean ± SD
Text: as §4, §2

SMILES	Polyamine pools PUT (LAN-1 cells [1]; LAN-1, Day 2) [NMOL/MG TOTAL PROTEIN]	Polyamine pools SPD (LAN-1 cells [1]; LAN-1, Day 2) [NMOL/MG TOTAL PROTEIN]	Polyamine pools SPM (LAN-1 cells [1]; LAN-1, Day 2) [NMOL/MG TOTAL PROTEIN]	Polyamine pools PUT (LAN-1 cells [1]; LAN-1, Day 3) [NMOL/MG TOTAL PROTEIN]	Polyamine pools SPD (LAN-1 cells [1]; LAN-1, Day 3) [NMOL/MG TOTAL PROTEIN]	Polyamine pools SPM (LAN-1 cells [1]; LAN-1, Day 3) [NMOL/MG TOTAL PROTEIN]	Polyamine pools PUT (NMB-7 cells [2]; NMB-7, Day 2) [NMOL/MG TOTAL PROTEIN]	Polyamine pools SPD (NMB-7 cells [2]; NMB-7, Day 2) [NMOL/MG TOTAL PROTEIN]	Polyamine pools SPM (NMB-7 cells [2]; NMB-7, Day 2) [NMOL/MG TOTAL PROTEIN]	Polyamine pools PUT (NMB-7 cells [2]; NMB-7, Day 3) [NMOL/MG TOTAL PROTEIN]	Polyamine pools SPD (NMB-7 cells [2]; NMB-7, Day 3) [NMOL/MG TOTAL PROTEIN]	Polyamine pools SPM (NMB-7 cells [2]; NMB-7, Day 3) [NMOL/MG TOTAL PROTEIN]	Specific enzyme activity ODC (ODC; LAN-1, 2 days after treatment) [% OF CONTROL]	Specific enzyme activity ODC (ODC; NMB-7, 2 days after treatment) [% OF CONTROL]	Cell cycle G1 (LAN-1 cells [3]; LAN-1, day 2) [% TOTAL CELLS]	Cell cycle G2/M (LAN-1 cells [3]; LAN-1, day 2) [% TOTAL CELLS]	Cell cycle S (LAN-1 cells [3]; LAN-1, day 2) [% TOTAL CELLS]	Cell cycle G1 (LAN-1 cells [3]; LAN-1, day 3) [% TOTAL CELLS]	Cell cycle G2/M (LAN-1 cells [3]; LAN-1, day 3) [% TOTAL CELLS]	Cell cycle S (LAN-1 cells [3]; LAN-1, day 3) [% TOTAL CELLS]	also measured
NCCC[C@](N)(C(=O)O)C(F)F [DFMO, α-difluoromethylornithine]	0.3	2.2	8.7	0.0	1.9	8.1	0.1	1.9	9.3	0.0	1.4	8.6	26 ± 2	25 ± 8	62.1 ± 10.4	11.5 ± 3.0	26.4 ± 7.5	63.1 ± 12.2	6.2 ± 4.1	30.8 ± 8.2	Cell cycle G1 (NMB-7 cells [4]; NMB-7, day 2): 60.3 ± 3.9 % TOTAL CELLS; Cell cycle G2/M (NMB-7 cells [4]; NMB-7, day 2): 8.4 ± 2.9 % TOTAL CELLS; Cell cycle S (NMB-7 cells [4]; NMB-7, day 2): 31.3 ± 6.5 % TOTAL CELLS; Cell cycle G1 (NMB-7 cells [4]; NMB-7, day 3): 58.8 ± 2.6 % TOTAL CELLS; Cell cycle G2/M (NMB-7 cells [4]; NMB-7, day 3): 10.2 ± 3.9 % TOTAL CELLS; Cell cycle S (NMB-7 cells [4]; NMB-7, day 3): 31.0 ± 6.3 % TOTAL CELLS
N=C(N)c1cccc2c1CC/C2=N\N=C(N)N [SAM486A, 4-amidinoindan-1-one 2′-amidinohydrazone]	48.5	5.5	4.2	43.7	5.0	3.5	69.6	5.6	3.9	259.5	5.5	3.6	240 ± 27	251 ± 42	58.7 ± 8.3	9.6 ± 3.2	31.7 ± 6.8	53.3 ± 5.1	9.3 ± 2.0	37.4 ± 3.5	Cell cycle G1 (NMB-7 cells [4]; NMB-7, day 2): 54.1 ± 4.3 % TOTAL CELLS; Cell cycle G2/M (NMB-7 cells [4]; NMB-7, day 2): 9.3 ± 3.2 % TOTAL CELLS; Cell cycle S (NMB-7 cells [4]; NMB-7, day 2): 36.6 ± 6.0 % TOTAL CELLS; Cell cycle G1 (NMB-7 cells [4]; NMB-7, day 3): 56.4 ± 6.5 % TOTAL CELLS; Cell cycle G2/M (NMB-7 cells [4]; NMB-7, day 3): 8.5 ± 1.4 % TOTAL CELLS; Cell cycle S (NMB-7 cells [4]; NMB-7, day 3): 35.2 ± 7.0 % TOTAL CELLS

Reference: US9072778B2, “Treatment regimen for N-MYC, c-MYC, and L-MYC amplified and overexpressed tumors” (UNIVERSITY OF HAWAII, priority 2005, dated 2015)
